Several values for one entry are separate records, joined by “and”; a condition that tells them apart may be missing. Identical values can stand only once. Inconclusive results and toxic doses are left out.
System: BDF1 mice, P1081 chloroleukemia ip, survival T/C
Assay: NCI In Vivo Anticancer Drug Screen. Data for tumor model P1081 Chloroleukemia (intraperitoneal) in B6D2F1 (BDF1) mice
Details: endpoint: mean survival time, higher = longer survival
Protocol: The antitumor activity of compounds was measured in mice bearing transplantable tumors. Survival or tumor size were measured and the results are expressed as the measurement made in the treated group (T) divided by the measurement made in the vehicle treated control group (C). The tumor model used in this assay is P1081 Chloroleukemia (intraperitoneal) in B6D2F1 (BDF1) mice

[1] = dose: 50.0 mg/kg/injection, schedule: Q01DX010 (ip), vehicle: saline
[2] = dose: 100.0 mg/kg/injection, schedule: Q01DX010 (ip), vehicle: saline

In the case of O=C(Nc1ccc(C2=NCCN2)cc1)c1ccc(C(=O)Nc2ccc(C3=NCCN3)cc2)c(Cl)c1, the T/C (dose: 1.8 mg/kg/injection, schedule: Q01DX Z (ip), vehicle: water) is reported as 97 % of control, the T/C (dose: 7.5 mg/kg/injection, schedule: Q01DX Z (ip), vehicle: water) is reported as 97 % of control and the T/C (dose: 60.0 mg/kg/injection, schedule: Q01DX Z (ip), vehicle: water) is reported as 86 % of control.
Nc1ncnc2c1ccn2C1OC(CO)C(O)C1O (stereo not drawn) was tested, and the T/C (dose: 0.04 mg/kg/injection, schedule: Q01DX Z (ip), vehicle: carboxymethylcellulose (CMC)) was 98 % of control, the T/C (dose: 0.08 mg/kg/injection, schedule: Q01DX Z (ip), vehicle: carboxymethylcellulose (CMC)) was 94 % of control and the T/C (dose: 0.16 mg/kg/injection, schedule: Q01DX Z (ip), vehicle: carboxymethylcellulose (CMC)) was 101 % of control. The T/C (dose: 0.31 mg/kg/injection, schedule: Q01DX Z (ip), vehicle: carboxymethylcellulose (CMC)) was 110 % of control and 112 % of control, the T/C (dose: 0.63 mg/kg/injection, schedule: Q01DX Z (ip), vehicle: carboxymethylcellulose (CMC)) was 108 % of control and the T/C (dose: 1.25 mg/kg/injection, schedule: Q01DX Z (ip), vehicle: carboxymethylcellulose (CMC)) was 88 % of control.
Nc1nc(SCc2ccccc2)c2[nH]cnc2n1 was tested, and the T/C (dose: 4.7 mg/kg/injection, schedule: Q01DX Z (ip), vehicle: carboxymethylcellulose (CMC)) was 91 % of control, the T/C (dose: 8.0 mg/kg/injection, schedule: Q01DX010 (ip), vehicle: saline) was 110 % of control and 116 % of control and the T/C (dose: 9.4 mg/kg/injection, schedule: Q01DX Z (ip), vehicle: carboxymethylcellulose (CMC)) was 90 % of control. The T/C (dose: 16.0 mg/kg/injection, schedule: Q01DX010 (ip), vehicle: saline) was 116 % of control and 105 % of control, the T/C (dose: 18.75 mg/kg/injection, schedule: Q01DX Z (ip), vehicle: carboxymethylcellulose (CMC)) was 100 % of control and the T/C (dose: 32.0 mg/kg/injection, schedule: Q01DX010 (ip), vehicle: saline) was 110 % of control and 122 % of control. The T/C (dose: 64.0 mg/kg/injection, schedule: Q01DX010 (ip), vehicle: saline) was 105 % of control.
Cc1cc2nc3c(=O)[nH]c(=O)nc-3n(CC(O)C(O)C(O)C(O)CO)c2cc1C (stereo not drawn) was tested, and the T/C [1] was 88 % of control and 100 % of control, the T/C [2] was 88 % of control and 90 % of control and the T/C (dose: 200.0 mg/kg/injection, schedule: Q01DX010 (ip), vehicle: saline) was 90 % of control and 100 % of control. For the same molecule, the T/C (dose: 400.0 mg/kg/injection, schedule: Q01DX010 (ip), vehicle: saline) was 100 % of control.
For N#[N+]c1cnc([O-])[nH]c1=O, the T/C (dose: 1.25 mg/kg/injection, schedule: Q01DX010 (ip), vehicle: saline) was 115 % of control, the T/C (dose: 5.0 mg/kg/injection, schedule: Q01DX010 (ip), vehicle: saline) was 160 % of control and the T/C (dose: 10.0 mg/kg/injection, schedule: Q01DX010 (ip), vehicle: saline) was 160 % of control and 166 % of control.
With CCN(CC)CCNc1ccc(C)c2sc3ccccc3c(=O)c12 the T/C (dose: 1.56 mg/kg/injection, schedule: Q01DX Z (ip), vehicle: methylcellulose (MC)) was 87 % of control, the T/C (dose: 6.25 mg/kg/injection, schedule: Q01DX Z (ip), vehicle: methylcellulose (MC)) was 88 % of control and the T/C (dose: 6.3 mg/kg/injection, schedule: Q01DX Z (ip), vehicle: methylcellulose (MC)) was 90 % of control. The T/C (dose: 12.5 mg/kg/injection, schedule: Q01DX Z (ip), vehicle: methylcellulose (MC)) was 91 % of control, the T/C (dose: 25.0 mg/kg/injection, schedule: Q01DX010 (ip), vehicle: saline) was 110 % of control and 122 % of control and the T/C (dose: 25.0 mg/kg/injection, schedule: Q01DX Z (ip), vehicle: methylcellulose (MC)) was 95 % of control. For the same molecule, the T/C [1] was 150 % of control, the T/C (dose: 50.0 mg/kg/injection, schedule: Q01DX Z (ip), vehicle: methylcellulose (MC)) was 96 % of control and the T/C [2] was 122 % of control and 95 % of control. For the same molecule, the T/C (dose: 100.0 mg/kg/injection, schedule: Q01DX Z (ip), vehicle: methylcellulose (MC)) was 101 % of control.
For COc1cc2c(c(OC)c1OC)-c1ccc(N)c(=O)cc1[C@@H](NC(C)=O)CC2, the T/C (dose: 0.5 mg/kg/injection, schedule: Q01DX010 (ip), vehicle: saline) was 177 % of control, the T/C (dose: 1.0 mg/kg/injection, schedule: Q01DX010 (ip), vehicle: saline) was 188 % of control and 250 % of control and the T/C (dose: 2.0 mg/kg/injection, schedule: Q01DX010 (ip), vehicle: saline) was 100 % of control.
CC(=O)Nc1ccc2nc3ccc(NC(C)=O)cc3[n+](-c3ccccc3)c2c1 was tested, and the T/C (dose: 12.5 mg/kg/injection, schedule: Q01DX Z (ip), vehicle: carboxymethylcellulose (CMC)) was 103 % of control, the T/C (dose: 25.0 mg/kg/injection, schedule: Q01DX Z (ip), vehicle: carboxymethylcellulose (CMC)) was 109 % of control and the T/C (dose: 50.0 mg/kg/injection, schedule: Q01DX Z (ip), vehicle: carboxymethylcellulose (CMC)) was 111 % of control.
CCOC(=O)NP(=O)(N1CC1(C)C)N1CC1(C)C (stereo not drawn) was tested, and the T/C (dose: 8.0 mg/kg/injection, schedule: Q01DX Z (ip), vehicle: carboxymethylcellulose (CMC)) was 109 % of control, the T/C (dose: 16.0 mg/kg/injection, schedule: Q01DX Z (ip), vehicle: carboxymethylcellulose (CMC)) was 106 % of control and 99 % of control and the T/C (dose: 62.5 mg/kg/injection, schedule: Q01DX Z (ip), vehicle: carboxymethylcellulose (CMC)) was 87 % of control and 104 % of control. The T/C (dose: 63.0 mg/kg/injection, schedule: Q01DX Z (ip), vehicle: carboxymethylcellulose (CMC)) was 169 % of control.

Reference: PubChem BioAssay AID246 (DTP/NCI, 2004)
